Laboratory results published in patent publication US20230097992A1, “BIVALENT EGF FUSION TOXINS” (The Regents of the University of Colorado, a body corporate, priority 2020, published 2023).
Entries after “also recorded” stand apart in the source; their conditions may differ.

Tests used:
[1] = system: HNSCC Cal27 tongue-orthotopic tumors; assay: Tongue-orthotopic tumor-bearing NSG mouse model; format: in vivo, NSG mice; conditions: for Median survival time: Tongue orthotopic model, fusion toxin or DT390 50 μg/kg IP, erlotinib 20 mg/kg gavage, once daily for 10 days from day 4; for tongue SCC tumor volume versus mono-EGF-IT and DT390 groups: second cohort, euthanized 8 days after tumor cell inoculation
Method: FIGS. 7A-7C presents the data from two animal studies of in vivo efficacy analysis of the human EGF fusion toxins against tongue squamous cell carcinomas (SCCs) in NSG mice. FIG. 7A presents the data from in vivo efficacy analysis of the human EGF fusion toxins using human EGFR-positive HNSCC Cal27 tongue-orthotopic tumor-bearing NSG mouse model. Eight million human EGFR-positive HNSCC Cal27 cells were injected into the tongue on day 0. Mice were injected intraperitoneally (IP) with the EGF fusion toxin or DT390 at 50 μg/kg, starting on day 4, once daily for 10 consecutive days. […] The schedule of the fusion toxin and tumor cell injection is pictured in the schematic below the survival curve. The vertical arrows indicate the days on which the tumor cells or the fusion toxins were injected. *P<0.05; **P<0.01; ***P<0.001; ****P<0.0001; ns: not significant.
FIG. 7B presents the data from a further in vivo efficacy analysis of the human EGF fusion toxins. […] The mice were euthanized on day 8 after tumor cell injection when the first mouse in the DT390 group reached the end point. The photograph depicts tongue squamous cell carcinomas (SCCs) (circled by the black dotted lines). Scale bar: 1 cm. FIG. 7C presents the FIG. 7B tumor volume comparison of the treatment groups. *P<0.05; **P<0.01
(§1) HNSCC tumor cells were injected via the following routes: 1) Flank-xenograft solid tumor model: eight million human HNSCC Cal27 tumor cells were subcutaneously injected into the right flank at day 0. The tumor-bearing mice were randomly divided into the four experimental groups when the tumors were palpable at day 3. The tumor volume was measured using digital vernier calipers every 3 days and calculated according to the formula: volume (mm^3)=(length×width×width)/2. 2) Tongue-orthotopic solid tumor model: eight million human HNSCC Cal27 tumor cells in 50 μl DMEM were injected into the tongue at day 0 following isoflurane anesthesia and the tumor-bearing mice were randomly divided into the planned four experimental groups at day 3. 3) Experimental metastasis model: one million human HNSCC Cal27 tumor cells in 200 μl DMEM were intravenously injected at day 0 via tail vein and the tumor-bearing mice were randomly divided into the four experimental groups at day 3.
(§2) Mono-EGF-IT (mEGF-IT), bEGF-IT, or DT390 was intraperitoneally injected (IP) starting at day 4 at 50 μg/kg, once daily for 10 consecutive days. […] The injected animals were observed daily for signs and symptoms of illness and scored at least twice weekly based on the parameters as previously reported (Peraino et al. (2013), J. Immunol. Methods 398-399, 33-43, which is hereby incorporated by reference in its entirety; Wang et al., 2015). The animals were humanely euthanized when the score exceeded the limit or the animal lost more than 15% of its pre-injection body weight. In addition, to assess whether the fusion toxins are toxic to the animals, NSG mice injected with the fusion toxins only were also included as control.
To assess the in vivo efficacy of the human EGF fusion toxins to the xenograft tumors in the head and neck area, a tongue-orthotopic tumor-bearing NSG mouse model was used as a second efficacy model. Eight million HNSCC Cal27 cells were injected into the tongue at day 0. The EGF fusion toxins were injected intraperitoneally (IP) starting on day 4 at 50 μg/kg daily for 10 consecutive days. Since the resulting tongue-orthotopic tumors severely affected the animal's eating and drinking, animals were euthanized earlier. Therefore, the median survival prolongation was not as impressive as that observed in the flank-xenograft solid tumor-bearing NSG mouse model. […] To further characterize the effect of the EGF fusion toxins on tumor volume, the orthotopic tongue SCC model study was repeated, and the mice were euthanized 8 days after tumor cell inoculation.

[2] = system: HNSCC Cal27 cells injected intravenously (lung metastases); assay: Experimental lung metastasis NSG mouse model; format: in vivo, NSG mice; conditions: for Median survival time: Lung metastasis model, fusion toxin or DT390 50 μg/kg IP, erlotinib 20 mg/kg gavage, once daily for 10 days from day 4; for number of metastases in the lungs: second cohort, euthanized 10 days after tumor cell inoculation
Method: FIG. 8A-C presents data from in vivo efficacy analysis of the human EGF fusion toxins using an experimental lung metastasis NSG mouse model. FIG. 8A presents data from a first animal study for survival curve analysis. NSG mice were IV injected with one million human EGFR^+ HNSCC Cal27 cells on day 0. Mice were injected intraperitoneally (IP) with the EGF fusion toxin or DT390 at 50 μg/kg, once daily for 10 consecutive days starting on day 4 after the tumor cell injection. […] The schedule of the fusion toxin and tumor cell injection is pictured in the schematic below the survival curve. The vertical arrows indicate the days on which the tumor cells or the fusion toxins were injected. *P<0.05; **P<0.01; ***P<0.001; ****P<0.0001. The P-values for the survival curves were calculated using the Mantel-Cox log-rank test (GraphPad Prism9.0).
FIGS. 8B and C present data from a second animal study for a pathology analysis. […] The mice were euthanized on day 10 after tumor cell injection when the first mouse in the DT390 group reached the end point. FIG. 8B presents H&E pictures of lung metastases. Metastases are indicated in the upper panels by black arrowheads. Scale bar: 500 μm. The lower panels are higher magnification pictures of the area in black rectangles in the upper panels. […] Error bars indicate standard deviation (SD).
as §1, §2
The third in vivo efficacy model was an experimental metastasis model. One million of HNSCC Cal27 tumor cells were intravenously injected via the tail vein of NSG mice at day 0. The EGF fusion toxins were injected intraperitoneally (IP) starting on day 4 at 50 μg/kg daily for 10 consecutive days. […] To further assess the effects of the fusion toxins on metastasis, the experimental metastasis study was repeated with a second cohort of NSG mice, and all mice were euthanized 10 days after tumor cell inoculation, when the first mouse in the DT390 group reached the end point. The data are depicted in FIGS. 8B and C.

C#Cc1cccc(Nc2ncnc3cc(OCCOC)c(OCCOC)cc23)c1 [Erlotinib]
Median survival time [1]: 16.5 days
tongue SCC tumor volume versus mono-EGF-IT and DT390 groups [1]: significantly smaller
Median survival time [2]: 30 days
number of metastases in the lungs [2]: reduced compared with the DT390-negative control group

Bi-EGF IT: DT390 joined by G4S to two human EGF domains linked by (G4S)3, C-terminal 6×His tag; SEQ ID NO: 10
Median survival time [1]: 15 days
tongue SCC tumor volume versus mono-EGF-IT and DT390 groups [1]: significantly smaller
Median survival time [2]: 38 days
number of metastases in the lungs [2]: reduced compared with the DT390-negative control group; also recorded: reduction was greater in the bi-EGF-IT group than in the mono-EGF-IT group
